From a melting point compilation (Tetko et al.; mined from patent text by program, amines drawn as free bases though some values may be those of a salt)

Row | SMILES | melting point [°C]
1 | CCCCCCCCCCCCCCCCCCOC(=O)c1cc(C(=O)OCCCCCCCCCCCCCCCCCC)c(C(=O)O)cc1C(=O)O | 133 to 137
2 | COc1ccccc1Oc1c(Cl)ncnc1Cl | 79 to 80
3 | CCOC(=O)/C=C/c1ccc(N2CCC3(CC2)OCCO3)cc1 | 115 to 116
4 | Cc1ccc(-c2nc3c(N[C@H]4[C@@H](C(N)=O)[C@@H]5C=C[C@H]4C5)c(Br)cnc3[nH]2)o1 | 200 to 201
5 | CN(C)C(=N)CCCCCCCCCCCCC(=N)N(C)C | 209
6 | COc1ccc2c(c1)-c1ccccc1C=CC(O)=C2 | 97 to 99
7 | CCc1c2c(nn1CC)c(N)nc1ccccc12 | 234 to 236
8 | N#Cc1cn(Cc2ccccc2)nn1 | 78 to 79
9 | CC=C(NC(=O)CC(C)C)C(=O)O | 172 to 174
10 | C[C@@H](NC(=O)OC(C)(C)C)c1nc2c(Cl)cccc2s1 | 95 to 96
11 | CC1(O)CC(C)(C)c2ccc(Oc3ccc([N+](=O)[O-])cc3)cc2O1 (stereo not drawn) | 159 to 160
12 | COC(=O)CC1Sc2sc(S(N)(=O)=O)cc2NC1=O (stereo not drawn) | 195 to 197
13 | Oc1c(Cl)cc(-c2cnn3c(O)ncnc23)cc1Cl | > 300
14 | N#Cc1cc2c(cc1C(F)(F)F)[nH]c(=O)c(=O)n2OC(=O)c1ccccc1 | 186
15 | CCCCCCCCCCOc1cc(OCCCCCCCCCC)cc(C(=O)N(CC(=O)O)CC(=O)O)c1 | 81 to 84
16 | O=C(NCCc1ncc(Cl)cc1Cl)c1ccccc1I | 133
17 | CC(C)CC(=O)Nc1ccc(Cl)c(-c2ccnc3c(C(=O)c4cccs4)cnn23)c1 | 162 to 165
18 | CCOc1nsc(NC(=O)Oc2ccccc2)c1C#N | 252 to 253
19 | COCCCNc1cc(C(F)(F)F)ccc1N | 69 to 70
20 | CC(C)(C)[N+]([O-])=Cc1cc(Cl)ccc1O | 143
21 | CCc1ccccc1C(N)=NO | 54 to 55

Row | SMILES | melting point [°C]
22 | COc1cc(-c2nn(C)c(C(F)(F)F)c2Br)c(F)cc1N | 85 to 86
23 | CC(C)C(=O)OC(OC(=O)NC1(C(=O)O)CC1)C(C)C (stereo not drawn) | 127 to 129
24 | CCOC(=O)c1ccc(C#C[Si](C)(C)C)nc1 | 55
25 | COc1ccc(C=O)c(OC)c1C | 51 to 52
26 | CC(C)(C)OC(=O)CC[C@H](NC(=O)c1ccc(N)cc1F)C(=O)OC(C)(C)C | 91 to 95
27 | c1ccc(Oc2noc(-c3ccccc3)n2)cc1 | 62
28 | O=C(O)C1=Cc2cc(Cl)cc(C#CCCCCl)c2OC1C(F)(F)F (stereo not drawn) | 154 to 156
29 | O=S1(=O)N=C(NCc2ccco2)Nc2cc(Cl)sc21 | 224 to 225
30 | CC(C)(C)C(=O)Nc1ccc(O)cc1 | 168 to 170
31 | C#CCc1cc(C(O)=S)cc(S(=O)(=O)Cl)c1Oc1ccccc1 | 177 to 179
32 | CS(=O)c1ncc2n1-c1ccc(Cl)cc1C(c1ccccc1F)=NC2 (stereo not drawn) | 95 to 110
33 | N#Cc1nc(-c2c(Cl)cc(C(F)(F)F)cc2Cl)[nH]c1C#N | 194 to 195
34 | Cn1c(=O)sc2cc(N3C[C@H](C(=O)NCCF)OC3=O)ccc21 | 201 to 203
35 | CCOC(=O)c1c(C(F)(F)F)cc(C(F)(F)F)nc1N | 84 to 86
36 | CS(=O)c1csc(C(=O)O)c1 (stereo not drawn) | 188 to 190
37 | CCOC(=O)Cc1c2c(nn1CC)c(=O)[nH]c1ccccc12 | 233 to 235
38 | COC(c1ccccc1)C1CCCCCC(=Cc2ccccc2)C1=O (stereo not drawn) | 136 to 139
39 | CCc1c(C)[nH]c2cc(OCCN(C)C)c(Cl)cc2c1=O | 227 to 230
40 | CCCCc1c(Cl)ncnc1Cl | 62 to 63
41 | COc1cccc(C=O)c1OC(C)=O | 75.4 to 76.2
42 | CS(=O)(=O)Nc1ccc(C23CC2C(=O)NC3=O)cc1 (stereo not drawn) | 208 to 209

Row | SMILES | melting point [°C]
43 | O=C(O)/C=C1\Cc2ccccc2C1=O | 201 to 203
44 | CON(C)C(=O)COc1nnc(-c2ccc3c(c2)CCO3)o1 | 139 to 140
45 | CC(C)C1(C)N=C(c2nc(O)ccc2C(=O)O)NC1=O (stereo not drawn) | 201 to 203
46 | CCOC(=O)c1cc(OC)c(OCc2nc(C)c(C)nc2C)c(OC)c1 | 122 to 123
47 | CNC(=O)Oc1c(OC)cc(OC)c2ccccc12 | 131 to 133
48 | CCOC(=S)c1cc(C)c(Br)cc1N | 48 to 50
49 | CN(C)C[C@H]1CC[C@H](CCNc2ncc(Br)cn2)CC1 | 108 to 110
50 | CC(C)c1cccc(Nc2nc(Cl)nc(NCc3ccccn3)n2)c1 | 130 to 132
51 | CC(C)Oc1ccc2nc(CO)n(C)c2n1 | 125 to 127
52 | C=CCN(CC(N)=O)S(=O)(=O)Cc1cccc(C(F)(F)F)c1 | 91 to 92
53 | O=C(N[C@@H]1CN2CCC1CC2)c1cccc2c1cc1n2CCCC1 | 163 to 164
54 | CC1CCCN(c2cncc(C(=O)Nc3nnn[nH]3)n2)C1 (stereo not drawn) | 236 to 238
55 | CCOc1ccc(Cl)cc1C(N)=O | 136 to 139
56 | CCOC(=O)c1cc2cc(C)c(C(F)(F)F)cc2[nH]1 | 176 to 178
57 | Cc1c(-c2ccccc2)nn(N)c1OCCN1CCCC1 | 109
58 | CN1CC(c2ccc(Cl)cc2)C(=O)C(c2cccc(Cl)c2)C1 (stereo not drawn) | 126
59 | CCCCCCCCCCCCc1ccc(N=C(C)c2ccccc2)cc1 | 47
60 | CC(C)(C)Nc1c(NCc2ccc(F)cc2C(F)(F)F)c(=O)c1=O | 192 to 194
61 | COc1ccc(OC)c(CNC(=O)n2cc(F)c(=O)[nH]c2=O)c1 | 185

Continued, values first:

Row | melting point [°C] | SMILES
62 | 258 to 262 | O=C(O)CN1C(=O)C(=Cc2c(-c3ccccc3)[nH]c3ccccc23)SC1=S
63 | 177 to 179 | CCCCC(=O)Nc1ccc(Cl)c(-n2nc(CCCC)n(Cc3ccc(-c4ccccc4S(=O)(=O)NC(=O)OC(C)(C)C)cc3)c2=O)c1
64 | 117 | CC(=O)Nc1cc2c(cc1Oc1ccc(F)cc1F)CCC2c1ccccc1 (stereo not drawn)
65 | 194 | Cc1cc2cc(CN3CCC(CCCC(=O)N(C)C)CC3)cnc2cc1NC(=O)c1ccc(-c2ccc(F)cc2)cc1
66 | 106 to 109 | Cc1ccc(C(=O)CCCOC(=O)Nc2ccccc2)cc1
67 | 92 to 94 | CC(O)c1ccc(CNC(=O)c2cccnc2Oc2cccnc2)s1 (stereo not drawn)
68 | 113 | O=C(c1ccc2ccn(CCOc3ccc(CC(OCC(F)(F)F)C(=O)O)cc3)c2n1)C1CC1 (stereo not drawn)
69 | 40 to 80 | CCCCC(NC(=O)c1ccccc1)C(=O)CN(C)C(=O)N1CCCC1C(=O)O (stereo not drawn)
70 | 132 to 133 | CC(C)(C)SC1CN(C(N)=O)CC1NS(=O)(=O)c1ccc(Oc2ccccc2)cc1 (stereo not drawn)
71 | 136 to 138 | CCN1C(=O)C(C)(C)C(=O)N(C)c2cc(CN(CCn3ccc4oc(C)cc4c3=O)Cc3cccc4c3OCO4)ccc21
72 | 222 to 224 | Cc1ccc(C2c3c(C)c(N4C(=O)c5ccccc5C4=O)c(C)c(C)c3OC2(C)C)cc1 (stereo not drawn)
73 | 258 to 260 | Cc1ccc(NC(=O)c2c(Cl)cccc2Cl)c2nccc(Cl)c12
74 | 161 to 163 | CC(C)Cn1c(CNC(=O)OC(C)(C)C)c(-c2ccc(F)cc2)c2cc(/C=C/C(N)=O)ccc2c1=O
75 | 202 to 203 | COc1ccc2c(c1)Sc1c(cc(OC)c(OC(=O)c3ccccc3)c1Br)N2
76 | 228 to 231 | Nc1ccc(C#Cc2cnn3c(C4CC4)cc(-c4ccc(C(F)(F)F)cc4)nc23)cn1
77 | 154 to 157 | N#Cc1ccc(OCCCc2cc3c(cc2OCc2ccccc2)CC(CCc2ccccc2)O3)cc1 (stereo not drawn)
78 | 69 to 70 | O=C(O)C(=O)c1ccc(OCCCCCOc2ccccc2)cc1
79 | 236 to 237 | CSc1nn2c(N3CCNCC3)cc(C(C)(C)C)nc2c1S(=O)(=O)c1ccccc1
80 | 204 to 206 | COc1ccc(-c2cc(C(=O)O)sc2-c2ccc(F)cc2)cc1
81 | 231 to 233 | Nc1cc(-c2cc(=O)c(C(=O)O)cn2-c2ccc(F)cc2)ccc1O
82 | 125 | CCN(CCCc1c[nH]c2c(F)cc(F)cc12)C1COc2c(C(N)=O)ccc(F)c2C1 (stereo not drawn)

Row | melting point [°C] | SMILES
83 | 157 to 159 | CN1C(=O)C2(COc3cc4c(cc32)OCCO4)c2c(OCc3ncccc3C(F)(F)F)cccc21 (stereo not drawn)
84 | 187 to 189 | Cn1c(C(F)(F)F)nc(-c2ccc(F)cc2)c1-c1ccc(S(C)(=O)=O)cc1
85 | 217 to 221 | O=C(O)Cc1ccc(-c2cn3ccccc3n2)cc1
86 | 168 to 170 | Nc1sc(-c2cccnc2)c(CN(C2CCCCC2)C2CCCCC2)c1C(=O)c1ccc(Cl)cc1
87 | 123 to 128 | COc1cc(OC)c2c(c1)OCC(CNCCCOc1cccc(N)c1)O2 (stereo not drawn)
88 | 112 to 113 | Cc1ccc2c3c(ccc2n1)OC[C@H](CN1CCN(c2cccc(C)c2C)CC1)O3
89 | 177 to 179 | CCOC(=O)c1c(-c2ccccc2)n(C)c(-c2ccccc2)cc1=O
90 | 88 to 96 | O=C1CCC(c2ccc(NN=C(CO)c3ccccc3)cc2)=NN1
91 | 191 to 192 | O=C(O)/C=C/c1cc(C2CC2)nn1Cc1ccc(C(F)(F)F)cc1Cl
92 | 100 to 102 | COC(=O)c1ccnc(N2CCN(Cc3ccccn3)C2=O)c1
93 | 200 to 201 | COc1ccc(S(=O)(=O)N2CCc3cccc(-c4ccc(C=CC(=O)NO)cc4)c32)cc1
94 | 114 to 115 | CCOP(=O)(Cc1ccc(NC(=O)CCc2c(C)noc2-c2ccccc2)cc1)OCC
95 | 180 to 182 | Cc1cc(NC(=O)C(CS)Cc2ccccc2)c(C)c(C(=O)O)c1 (stereo not drawn)
96 | 196 to 200 | Cn1ncnc1COc1nn2c(-c3ccccc3F)nncc2c1-c1cccc(N)c1
97 | 199 to 202 | O=C(Cc1ccc(NC(=O)c2cn3c4c(cccc24)CCC3)cc1)NO
98 | 239 to 242 | CC(C)(OCc1cc(-c2ccc(Cl)cc2)no1)C(=O)N1CCCCC1
99 | 183 to 185 | Cc1c(S(=O)(=O)c2ccc(Cl)cc2)csc1-c1nc(-c2c(F)cccc2F)nn1C
100 | 163 to 164 | O=S(=O)(c1ccc(F)cc1)c1c[nH]c2ccc(Br)cc12
101 | 131 to 133 | Cc1ccc(S(=O)(=O)ON2C(=O)c3ccc(C(=O)Cl)cc3C2=O)cc1
102 | 194 to 196 | Cc1ccc(C(=O)NC(NC(=NC#N)Nc2ccc(Cl)nc2)C(C)(C)C)cc1 (stereo not drawn)
103 | 165 | CC(=O)OC1CSC(Oc2cnc(-c3ccncc3)c(F)c2)C(OC(C)=O)C1OC(C)=O (stereo not drawn)
